Test results published in ChEMBL document CHEMBL1201862, “PubChem BioAssay data set” (2004).
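A five-concentration, 48-hour dose response in 96-well plates underlies each endpoint, interpolated linearly between surrounding concentrations. GI50 = concentration required for 50% inhibition of growth.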 Calls of active or inactive are those of the source. Cut-off read from the data, not from the text of the source: active = GI50 up to about 1.1 µM and inactive = higher.

Experiments:
Assay in all cases: NCI anticancer screen, dose series, 48 h
[1] = test system: CAKI-1
[2] = test system: CCRF-CEM
[3] = test system: HCC 2998
[4] = test system: HCT-116
[5] = test system: HCT-15
[6] = test system: HL-60
[7] = test system: HOP-92
[8] = test system: HT-29
[9] = test system: Malme-3M
[10] = test system: OVCAR-4
[11] = test system: SF-295
[12] = test system: SF-539
[13] = test system: SK-OV-3
[14] = test system: SN12C
[15] = test system: SW-620
[16] = test system: UO-31
[17] = test system: EKVX
[18] = test system: NCI-H522

Compound | GI50 [1] | GI50 [2] | GI50 [3] | GI50 [4] | GI50 [5] | GI50 [6] | GI50 [7] | GI50 [8] | GI50 [9] | GI50 [10] | GI50 [11] | GI50 [12] | GI50 [13] | GI50 [14] | GI50 [15] | GI50 [16] | GI50 [17] | GI50 [18]
O=C(/C=C/c1ccccc1)/C=C/c1ccccc1 | 92.9 µM (inactive) | 36.9 µM (inactive) | 37.8 µM (inactive) | 17.3 µM (inactive) | 23.6 µM | 23.2 µM (inactive) | 34.8 µM (inactive) | 17.8 µM (inactive) | 21.8 µM (inactive) | 22.1 µM (inactive) | 53.5 µM (inactive) | 19.5 µM (inactive) | 43 µM (inactive) | 20.4 µM (inactive) | 17.4 µM (inactive) | 43.5 µM (inactive) |  | 
CNS(=O)(=O)NNS(=O)(=O)c1ccccc1 | > 100 µM (inactive) | > 100 µM (inactive) | > 100 µM (inactive) | > 100 µM (inactive) | > 100 µM | > 100 µM (inactive) | > 100 µM (inactive) | > 100 µM (inactive) | > 100 µM (inactive) |  | > 100 µM (inactive) | > 100 µM (inactive) | > 100 µM (inactive) | > 100 µM (inactive) | > 100 µM (inactive) | > 100 µM (inactive) | > 100 µM (inactive) | > 100 µM (inactive)
C[Si](C)(C)OC1CC(=O)OC1n1cc(F)c(=O)[nH]c1=O (stereo not drawn) | 23.9 µM (inactive) | 18.2 µM (inactive) | 0.759 µM (active) | 5.79 µM (inactive) | 9.44 µM | 9.71 µM (inactive) |  | 8.32 µM (inactive) | 19.2 µM (inactive) | > 28.4 µM (inactive) | > 76.9 µM (inactive) | 2.58 µM (inactive) | > 95.7 µM (inactive) | 40 µM (inactive) | 24.2 µM (inactive) | 13 µM (inactive) | 8.18 µM (inactive) | 19.5 µM (inactive)
Cc1nc2c(s/c(=N\N)n2-c2ccccc2)c(=O)n1C | > 100 µM (inactive) | > 100 µM (inactive) | > 100 µM (inactive) | > 100 µM (inactive) | > 100 µM | > 100 µM (inactive) | > 100 µM (inactive) | > 100 µM (inactive) |  | > 100 µM (inactive) | > 100 µM (inactive) | > 100 µM (inactive) | > 100 µM (inactive) | > 100 µM (inactive) | > 100 µM (inactive) | > 100 µM (inactive) | > 100 µM (inactive) | > 100 µM (inactive)
C/C=C1\CN2CCc3c([nH]c4ccccc34)C2C=C1CCO (stereo not drawn) | > 340 µM (inactive) | > 340 µM (inactive) | > 340 µM (inactive) | > 340 µM (inactive) | > 340 µM | > 340 µM (inactive) | > 340 µM (inactive) | > 340 µM (inactive) | > 340 µM (inactive) |  | > 340 µM (inactive) | > 340 µM (inactive) | > 340 µM (inactive) | > 340 µM (inactive) | > 340 µM (inactive) |  | > 340 µM (inactive) | > 340 µM (inactive)
O=C1C(=O)C(Br)(Br)C(Br)=C1Br | 18.4 µM (inactive) | 16.2 µM (inactive) | 20.5 µM (inactive) |  | 19.8 µM | 18.7 µM (inactive) | 14 µM (inactive) | 19 µM (inactive) | 20 µM (inactive) | 22.4 µM (inactive) | 57.4 µM (inactive) | 19 µM (inactive) | > 100 µM (inactive) | 23.7 µM (inactive) | 13.8 µM (inactive) | 17.8 µM (inactive) | 25.4 µM (inactive) | 2.33 µM (inactive)
Cc1ccc(C)c(N2C(=O)C(=O)C(c3nc4ccccc4s3)/C(=N\c3cccc4c(=O)[nH][nH]c(=O)c34)C2=O)c1 (stereo not drawn) | > 100 µM (inactive) | > 100 µM (inactive) | > 100 µM (inactive) | > 100 µM (inactive) | > 100 µM | > 100 µM (inactive) | > 100 µM (inactive) | > 100 µM (inactive) | > 100 µM (inactive) | 88.5 µM (inactive) | > 100 µM (inactive) | 91.8 µM (inactive) | > 100 µM (inactive) | > 100 µM (inactive) | > 100 µM (inactive) | > 100 µM (inactive) | > 100 µM (inactive) | 
Cc1ccc(NC(=O)COC(=O)c2cccc3c(=O)c4ccccc4[nH]c23)cc1 | 29.2 µM (inactive) |  | 37.6 µM (inactive) | 14.6 µM (inactive) |  | 38.3 µM (inactive) | 82.8 µM (inactive) | 36.6 µM (inactive) | 47 µM (inactive) | 48.3 µM (inactive) | 35.7 µM (inactive) | 22.9 µM (inactive) | 25.5 µM (inactive) | 32.1 µM (inactive) | 21.5 µM (inactive) | 5.35 µM (inactive) | 16.8 µM (inactive) | 9.29 µM (inactive)
COC1OC(COS(=O)(=O)c2ccc(C)cc2)C(O)C(OS(=O)(=O)c2ccc(C)cc2)C1OS(=O)(=O)c1ccc(C)cc1 (stereo not drawn) | 1.03 µM (active) | > 100 µM (inactive) | > 100 µM (inactive) | > 100 µM (inactive) | > 100 µM | > 100 µM (inactive) |  | > 100 µM (inactive) | > 100 µM (inactive) | > 100 µM (inactive) | > 100 µM (inactive) | > 100 µM (inactive) | > 100 µM (inactive) | > 100 µM (inactive) | 16 µM (inactive) | > 100 µM (inactive) | > 100 µM (inactive) | > 100 µM (inactive)
CCOC(=O)NC(=O)c1cn(CCOCCOC(=O)NCCCCCCNC(=O)OCCOCCn2cc(C(=O)NC(=O)OCC)c(=O)[nH]c2=O)c(=O)[nH]c1=O |  |  | > 100 µM (inactive) | > 100 µM (inactive) | > 100 µM | > 100 µM (inactive) | > 100 µM (inactive) | > 100 µM (inactive) | > 100 µM (inactive) | > 100 µM (inactive) | > 100 µM (inactive) | > 100 µM (inactive) | > 100 µM (inactive) | > 100 µM (inactive) | > 100 µM (inactive) | > 100 µM (inactive) | > 100 µM (inactive) | > 100 µM (inactive)
N#CNc1nc(N)c(-c2ccc(Cl)cc2)c(C(=O)Nc2nccs2)n1 | > 100 µM (inactive) |  | > 100 µM (inactive) | > 100 µM (inactive) | > 100 µM | > 100 µM (inactive) | > 100 µM (inactive) | > 100 µM (inactive) | > 100 µM (inactive) | > 100 µM (inactive) | > 100 µM (inactive) | > 100 µM (inactive) |  | > 100 µM (inactive) | > 100 µM (inactive) | > 100 µM (inactive) | > 100 µM (inactive) | > 100 µM (inactive)
NS(=O)(=O)c1ccc(NC(=O)c2cccc3c(Nc4ccc(S(N)(=O)=O)cc4)c4ccccc4nc23)cc1 | 38.2 µM (inactive) | 6.18 µM (inactive) |  | 46.8 µM (inactive) | 37.3 µM | 28.6 µM (inactive) | 33.8 µM (inactive) | 14.6 µM (inactive) | 43.9 µM (inactive) | 22.4 µM (inactive) | 31.6 µM (inactive) | 20.8 µM (inactive) | > 100 µM (inactive) | 31.8 µM (inactive) | 29.4 µM (inactive) | 93.5 µM (inactive) | > 100 µM (inactive) | 10.8 µM (inactive)
Nc1nc(N)c(-c2ccc(Cl)cc2)c(CCC(=O)Nc2cccc(C(F)(F)F)c2)n1 | > 100 µM (inactive) | > 100 µM (inactive) | > 100 µM (inactive) | > 100 µM (inactive) | > 100 µM | > 100 µM (inactive) |  | > 100 µM (inactive) | > 100 µM (inactive) | > 100 µM (inactive) | > 100 µM (inactive) | > 100 µM (inactive) | > 100 µM (inactive) | > 100 µM (inactive) | > 100 µM (inactive) | > 100 µM (inactive) | > 100 µM (inactive) | > 100 µM (inactive)
CCO/C([O-])=C(\C(=O)c1ccccc1)[n+]1c(C)n(C)c2ccccc21 | > 100 µM (inactive) | > 100 µM (inactive) | > 100 µM (inactive) | > 100 µM (inactive) | > 100 µM | > 100 µM (inactive) |  | > 100 µM (inactive) | > 100 µM (inactive) | > 100 µM (inactive) | > 100 µM (inactive) | > 100 µM (inactive) | > 100 µM (inactive) |  | > 100 µM (inactive) | > 100 µM (inactive) | > 100 µM (inactive) | > 100 µM (inactive)
CC(=O)n1c2ccccc2c2nc3nc(Oc4ccc(C)cc4)c4ccccc4c3cc21 | > 100 µM (inactive) | > 100 µM (inactive) | > 100 µM (inactive) | > 100 µM (inactive) | > 100 µM |  |  | > 100 µM (inactive) | > 100 µM (inactive) | 29.4 µM (inactive) | 66.2 µM (inactive) | > 100 µM (inactive) | > 100 µM (inactive) | > 100 µM (inactive) | > 100 µM (inactive) | > 100 µM (inactive) | > 100 µM (inactive) | > 100 µM (inactive)
COC(=O)c1ccc(Cl)cc1NC(=O)C1CCCCC1 | > 100 µM (inactive) |  | > 100 µM (inactive) | > 100 µM (inactive) | > 100 µM |  | > 100 µM (inactive) | > 100 µM (inactive) | > 100 µM (inactive) | > 100 µM (inactive) | > 100 µM (inactive) | > 100 µM (inactive) |  | > 100 µM (inactive) | > 100 µM (inactive) | 3.53 µM (inactive) | > 100 µM (inactive) | > 100 µM (inactive)
O=C1CCC2(c3ccc(Cl)cc3)Nc3cc(Cl)ccc3N12 (stereo not drawn) |  | 2.42 µM (inactive) |  | 7.06 µM (inactive) | 12.2 µM | 1.15 µM (inactive) |  | 12.4 µM (inactive) | 10.7 µM (inactive) | 10.6 µM (inactive) | 9.04 µM (inactive) | 2.3 µM (inactive) | 17.6 µM (inactive) | 15.3 µM (inactive) | 6.14 µM (inactive) | 15.6 µM (inactive) | 15 µM (inactive) | 10.2 µM (inactive)
